We go through one molecule from ChEMBL document CHEMBL1121462, “Effect of changing the COOH-terminal amide group present in the hydrophilic cluster of oxytocin to dimethylamide” (1980).

SMILES strings stand for the structures.

Test [1] is filed under the species Rattus norvegicus. The test can be described thus: Potency by rat antidiuretic assay. The format is functional, Urine.
The species named for test [2] is Rattus norvegicus. The test is described as follows: Potency by rat pressor assay. It is filed as functional.
A further test is filed under the species Gallus gallus. The test can be described thus: Potency by avian vasodepressor assay.

Turning to `CC[C@H](C)[C@@H]1NC(=O)[C@H](Cc2ccc(O)cc2)NC(=O)[C@@H](N)CSSC[C@@H](C(=O)N2CCC[C@H]2C(=O)N[C@@H](CC(C)C)C(=O)NCC(=O)N(C)C)NC(=O)[C@H](CC(N)=O)NC(=O)[C@H](CCC(N)=O)NC1=O`, the figures for the Potency in the test filed under Rattus norvegicus [1], in the test filed under Rattus norvegicus [2] and in the test listed under Gallus gallus were 0.096 mg, less than 0.01 mg and less than 0.07 mg, respectively.
